Literature values in patent US20250186494A1, “CAR-T THERAPIES TARGETED VIA COVALENTLY BONDED ADAPTERS” (THE SCRIPPS RESEARCH INSTITUTE, priority 2023, published 2025).

Target: PSMA (Homo sapiens, UniProt Q04609)
Conditions: already known targeting moiety

Sequence of PSMA (Q04609 whole entry): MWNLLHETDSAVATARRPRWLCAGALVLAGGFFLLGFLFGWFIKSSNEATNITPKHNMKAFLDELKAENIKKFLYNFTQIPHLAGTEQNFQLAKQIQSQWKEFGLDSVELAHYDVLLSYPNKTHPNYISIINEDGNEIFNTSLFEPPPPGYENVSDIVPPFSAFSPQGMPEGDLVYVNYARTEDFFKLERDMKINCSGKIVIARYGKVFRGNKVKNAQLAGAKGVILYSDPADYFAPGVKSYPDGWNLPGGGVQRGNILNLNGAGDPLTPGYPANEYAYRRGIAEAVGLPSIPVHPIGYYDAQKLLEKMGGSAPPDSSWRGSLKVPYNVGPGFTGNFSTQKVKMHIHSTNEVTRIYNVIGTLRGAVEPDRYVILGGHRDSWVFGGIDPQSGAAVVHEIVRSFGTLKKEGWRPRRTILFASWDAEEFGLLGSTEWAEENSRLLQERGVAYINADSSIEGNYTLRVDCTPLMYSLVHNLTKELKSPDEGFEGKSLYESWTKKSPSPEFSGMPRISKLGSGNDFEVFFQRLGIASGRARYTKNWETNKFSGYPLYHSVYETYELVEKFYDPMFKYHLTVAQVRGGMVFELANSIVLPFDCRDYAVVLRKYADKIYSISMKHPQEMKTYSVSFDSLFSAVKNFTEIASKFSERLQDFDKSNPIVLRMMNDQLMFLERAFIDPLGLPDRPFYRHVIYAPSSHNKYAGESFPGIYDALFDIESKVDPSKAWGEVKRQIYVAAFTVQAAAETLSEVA

affinity for PSMA: nM affinity
SMILES: O=C(O)CCC(NC(=O)NC(CCC(=O)O)C(=O)O)C(=O)O (stereo not shown) [DUPA, 2-[3-(1,3-dicarboxypropyl)ureido]pentanedioic acid]
